Data on 25 molecules can be found in patent US12257247B2 (Monte Rosa Therapeutics AG, priority 2023, dated 2025).

This assay addresses T1, VAV1 (Homo sapiens, UniProt P15498+Q96SW2).
T1 construct: A heterozygous VAV1 C-terminal HiBiT knock-in pool was generated at Monte Rosa Therapeutics from a clonal Jurkat cell; endogenous in cells; host or cells: Jurkat clone stably expressing LgBiT, homozygous GSPT1-G575N; heterozygous VAV1-HiBiT knock-in pool
In words: VAV1 degradation activity, VAV1-HiBiT knock-in Jurkat luminescence assay (Example A, Table 1). The class given is cell-based. The following applies: VAV1-HiBiT knock-in Jurkat cells; for Dmax: Jurkat. The procedure, abridged:
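Jurkat cells carrying VAV1-HiBiT knock-in, plated in RPMI/10% FBS with Endurazine live-cell substrate and pre-incubated ~16 h at 37° C. Compound dosed from 10 μM stock; luminescence read 6 and 24 h later. Response normalised to plate negative/positive controls, EC50 from 3-parameter logistic fit (hillslope 1).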

Setting [1] is: luminescence read at 6 and 24 hours after compound addition, read-out: VAV1 Dmax %.
Where [2] appears, read: luminescence read at 6 and 24 hours after compound addition, read-out: VAV1 Dmax %, class.
Where [3] appears, read: luminescence read at 6 and 24 hours after compound addition, read-out: VAV1 DC50.
[4] abbreviates: luminescence read at 6 and 24 hours after compound addition, read-out: VAV1 DC50 (nM), class.
[5] abbreviates: luminescence read at 6 and 24 hours, read-out: VAV1 Dmax %.
Setting [6] is: luminescence read at 6 and 24 hours, read-out: VAV1 Dmax %, class.
Where [7] appears, read: luminescence read at 6 and 24 hours, read-out: VAV1 DC50.
Where [8] appears, read: luminescence read at 6 and 24 hours, read-out: VAV1 DC50 (nM), class.

Read-outs that look alike come from different tables or passages of the source. Bounds are passed on as bounds.

In the case of `Cn1ccc(Cn2c(=O)oc3cc(-c4cccc(C5CCC(=O)NC5=O)c4Cl)ccc32)n1` (stereo not shown) [Compound 507, 3-(2-chloro-3-(3-((1-methyl-1H-pyrazol-3-yl)methyl)-2-oxo-2,3-dihydrobenzo[d]oxazol-6-yl)phenyl)piperidine-2,6-dione], the Dmax was 91.8% under setting [1] and over 90% under setting [2]. Moreover, the half-maximal degradation concentration (DC50) is 28.6 nM under setting [3] and at most 100 nM under setting [4].

For `O=C1CCC(c2cccc(-c3ccc(NC(=O)N4CCCC4)cc3)c2Cl)C(=O)N1` (stereo not shown) [Compound 248, N-(2′-chloro-3′-(2,6-dioxopiperidin-3-yl)-[1,1′-biphenyl]-4-yl)pyrrolidine-1-carboxamide], the Dmax by setting is: under setting [5], 84.4%; under setting [6], 60 to 90%. The DC50 is 26.3 nM under setting [7] and at most 100 nM under setting [8].

`COc1cc(-c2cccc(C3CCC(=O)NC3=O)c2Cl)ccc1C` (stereo not shown) [Compound 132]: the Dmax is 84.5% under setting [5] and 60 to 90% under setting [6]. Besides, the 50% degradation concentration (DC50) is, setting by setting: under setting [7], 475 nM; under setting [8], 100 to 1000 nM.

As to `O=C1CCC(c2cccc(-c3cnc(N4C(=O)CCCC45CC5)c(F)c3)c2Cl)C(=O)N1` (stereo not shown) [Compound 362, 3-(2-chloro-3-(5-fluoro-6-(5-oxo-4-azaspiro[2.5]octan-4-yl)pyridin-3-yl)phenyl)piperidine-2,6-dione], the Dmax runs as follows: under setting [5], 87.5%; under setting [6], 60 to 90%. The DC50 by setting is: under setting [7], 69.6 nM; under setting [8], at most 100 nM.

Take `Cn1ccc(CN2CCc3cc(-c4cccc(C5CCC(=O)NC5=O)c4Cl)ccc32)n1` (stereo not shown) [Compound 489, 3-(2-chloro-3-(1-((1-methyl-1H-pyrazol-3-yl)methyl)indolin-5-yl)phenyl)piperidine-2,6-dione]: the greatest degradation seen (Dmax) under setting [1] came out at 97.8% and the Dmax under setting [2] was over 90%. Moreover, the half-maximal degradation concentration (DC50) under setting [3] worked out at 2.84 nM and the DC50 under setting [4] is at most 100 nM.

Regarding `CC1(C)COCC(=O)N1c1ccc(-c2cccc(C3CCC(=O)NC3=O)c2Cl)cc1` (stereo not shown) [Compound 402, 3-(2-chloro-4′-(3,3-dimethyl-5-oxomorpholino)-[1,1′-biphenyl]-3-yl)piperidine-2,6-dione], the greatest degradation seen (Dmax) by setting is: under setting [5], 97.4%; under setting [6], over 90%. Also, the DC50 under setting [7] was found to be 5.3 nM and the 50% degradation concentration (DC50) under setting [8] was at most 100 nM.

Regarding `O=C1CCC(c2cccc(-c3ccc(-n4c(C(F)(F)F)cccc4=O)cc3)c2Cl)C(=O)N1` (stereo not shown) [Compound 443, 3-(2-chloro-4′-(2-oxo-6-(trifluoromethyl)pyridin-1(2H)-yl)-[1,1′-biphenyl]-3-yl)piperidine-2,6-dione], the greatest degradation seen (Dmax) by setting is: under setting [5], 99.3%; under setting [6], over 90%. In addition, the DC50 was 2.27 nM under setting [7] and at most 100 nM under setting [8].

Regarding `O=C1CCC(c2cccc(-c3ccc(-n4c(F)cccc4=O)cc3)c2Cl)C(=O)N1` (stereo not shown) [Compound 242, 3-(2-chloro-4′-(6-fluoro-2-oxopyridin-1(2H)-yl)-[1,1′-biphenyl]-3-yl)piperidine-2,6-dione], the maximal degradation (Dmax) reads like this: under setting [5], 91.5%; under setting [6], over 90%. In addition, the DC50 was 68.4 nM under setting [7] and at most 100 nM under setting [8].

For the molecule `O=C1CCC(c2cccc(-c3ccc(Cn4cccnc4=O)nc3)c2Cl)C(=O)N1` (stereo not shown) [Compound 434, 3-(2-chloro-3-(6-((2-oxopyrimidin-1(2H)-yl)methyl)pyridin-3-yl)phenyl)piperidine-2,6-dione], the Dmax by setting is: under setting [5], 46.2%; under setting [6], under 60%. The DC50 by setting is: under setting [7], at least 10000 nM; under setting [8], over 1000 nM.

In the case of `O=C1CCC(c2cccc(-c3ccc(CS(=O)(=O)N4CCCC4)cc3)c2Cl)C(=O)N1` (stereo not shown) [Compound 423, 3-(2-chloro-4′-((pyrrolidin-1-ylsulfonyl)methyl)-[1,1′-biphenyl]-3-yl)piperidine-2,6-dione], the greatest degradation seen (Dmax) by setting is: under setting [5], 74.6%; under setting [6], 60 to 90%. Also, the half-maximal degradation concentration (DC50) is, setting by setting: under setting [7], 144 nM; under setting [8], 100 to 1000 nM.

For the molecule `O=C1CCC(c2cccc(-c3ccc(N4CCC5CC5C4=O)cc3)c2Cl)C(=O)N1` (stereo not shown) [Compound 312], the greatest degradation seen (Dmax) under setting [5] came to 96.1% and the Dmax under setting [6] was over 90%. For the same molecule, the half-maximal degradation concentration (DC50) by setting is: under setting [7], 7.99 nM; under setting [8], at most 100 nM.

Regarding `O=C1CCC(c2cccc(-c3ccc(CN4CCCC4=O)cc3)c2Cl)C(=O)N1` (stereo not shown) [Compound 206, 3-(2-chloro-4′-((2-oxopyrrolidin-1-yl)methyl)-[1,1′-biphenyl]-3-yl)piperidine-2,6-dione], the Dmax is 87.5% under setting [5] and 60 to 90% under setting [6]. Also, the 50% degradation concentration (DC50) runs as follows: under setting [7], 42.7 nM; under setting [8], at most 100 nM.

`Nc1cc(-c2cccc(C3CCC(=O)NC3=O)c2Cl)ccc1Cl` (stereo not shown) [Compound 138]: the Dmax is 84.6% under setting [5] and 60 to 90% under setting [6]. Besides, the DC50 reads like this: under setting [7], 604 nM; under setting [8], 100 to 1000 nM.

Consider `Cn1ccc(COc2ccc(-c3cccc(C4CCC(=O)NC4=O)c3Cl)cc2)n1` (stereo not shown) [Compound 154, 3-(2-chloro-4′-((1-methyl-1H-pyrazol-3-yl)methoxy)-[1,1′-biphenyl]-3-yl)piperidine-2,6-dione], for which the Dmax is, setting by setting: under setting [5], 97%; under setting [6], over 90%. The 50% degradation concentration (DC50) runs as follows: under setting [7], 18.7 nM; under setting [8], at most 100 nM.

In the case of `O=C1CCC(c2cccc(-c3ccc4c(c3)CCCN4)c2Cl)C(=O)N1` (stereo not shown) [Compound 486, 3-(2-chloro-3-(1,2,3,4-tetrahydroquinolin-6-yl)phenyl)piperidine-2,6-dione], the maximal degradation (Dmax) is 96.2% under setting [1] and over 90% under setting [2]. The DC50 under setting [3] stood at 6.51 nM and the DC50 under setting [4] is at most 100 nM.

As for `CC1(C)CCCC(=O)N1Cc1ccc(-c2cccc(C3CCC(=O)NC3=O)c2Cl)cc1` (stereo not shown) [Compound 292], the Dmax under setting [5] worked out at 93.7% and the Dmax under setting [6] was over 90%. Besides, the 50% degradation concentration (DC50) reads like this: under setting [7], 12.7 nM; under setting [8], at most 100 nM.

As to `O=C1CCC(c2cccc(-c3cnc(Cc4ncco4)c(F)c3)c2Cl)C(=O)N1` (stereo not shown) [Compound 370, 3-(2-chloro-3-(5-fluoro-6-(oxazol-2-ylmethyl)pyridin-3-yl)phenyl)piperidine-2,6-dione], the greatest degradation seen (Dmax) is 58.1% under setting [5] and under 60% under setting [6]. The half-maximal degradation concentration (DC50) reads like this: under setting [7], 1570 nM; under setting [8], over 1000 nM.

In the case of `Cn1ccc(Cc2ccc(-c3cccc(C4CCC(=O)NC4=O)c3Cl)cc2)n1` (stereo not shown) [Compound 176, 3-(2-chloro-4′-((1-methyl-1H-pyrazol-3-yl)methyl)-[1,1′-biphenyl]-3-yl)piperidine-2,6-dione], the Dmax runs as follows: under setting [5], 98%; under setting [6], over 90%. Moreover, the half-maximal degradation concentration (DC50) by setting is: under setting [7], 4.41 nM; under setting [8], at most 100 nM.

`Cc1nccn1Cc1ccc(-c2cccc(C3CCC(=O)NC3=O)c2Cl)cc1` (stereo not shown) [Compound 111]: the Dmax under setting [5] stood at 87.8% and the Dmax under setting [6] was 60 to 90%. The DC50 by setting is: under setting [7], 49.2 nM; under setting [8], at most 100 nM.

On to `O=C1CCC(c2cccc(-c3ccc(N4C(=O)OCC45CC5)nc3)c2Cl)C(=O)N1` (stereo not shown) [Compound 356, 3-(2-chloro-3-(6-(5-oxo-6-oxa-4-azaspiro[2.4]heptan-4-yl)pyridin-3-yl)phenyl)piperidine-2,6-dione], for which the maximal degradation (Dmax) under setting [5] was 86% and the greatest degradation seen (Dmax) under setting [6] is 60 to 90%. The half-maximal degradation concentration (DC50) was 71.4 nM under setting [7] and at most 100 nM under setting [8].

In the case of `Cn1ccc(CNc2ccc(-c3cccc(C4CCC(=O)NC4=O)c3Cl)cc2)n1` (stereo not shown) [Compound 180, 3-(2-chloro-4′-(((1-methyl-1H-pyrazol-3-yl)methyl)amino)-[1,1′-biphenyl]-3-yl)piperidine-2,6-dione], the Dmax by setting is: under setting [5], 88.8%; under setting [6], 60 to 90%. Further, the DC50 reads like this: under setting [7], 11.5 nM; under setting [8], at most 100 nM.

Consider `O=C1CCC(c2cccc(-c3ccc(Cc4nccc(C5COC5)n4)cc3)c2Cl)C(=O)N1` (stereo not shown) [Compound 340, 3-(2-chloro-4′-((4-(oxetan-3-yl)pyrimidin-2-yl)methyl)-[1,1′-biphenyl]-3-yl)piperidine-2,6-dione], for which the greatest degradation seen (Dmax) is 96.6% under setting [5] and over 90% under setting [6]. Moreover, the DC50 is 5.86 nM under setting [7] and at most 100 nM under setting [8].

For the molecule `O=C1CCC(c2cccc(-c3ccc(Cc4ncccn4)nc3)c2Cl)C(=O)N1` (stereo not shown) [Compound 400, 3-(2-chloro-3-(6-(pyrimidin-2-ylmethyl)pyridin-3-yl)phenyl)piperidine-2,6-dione], the greatest degradation seen (Dmax) is 81.5% under setting [5] and 60 to 90% under setting [6]. Also, the DC50 was 77 nM under setting [7] and at most 100 nM under setting [8].

Consider `O=C1CCC(c2cccc(-c3ccc(N4C(=O)CCCC4=O)cc3)c2Cl)C(=O)N1` (stereo not shown) [Compound 205, 1-(2′-chloro-3′-(2,6-dioxopiperidin-3-yl)-[1,1′-biphenyl]-4-yl)piperidine-2,6-dione], for which the Dmax is 90.4% under setting [5] and over 90% under setting [6]. The 50% degradation concentration (DC50) is, setting by setting: under setting [7], 16.4 nM; under setting [8], at most 100 nM.

As to `O=C1CCC(c2cccc(-c3ccc(CN4C(=O)CCCC45CC5)nc3)c2Cl)C(=O)N1` (stereo not shown) [Compound 404, 3-(2-chloro-3-(6-((5-oxo-4-azaspiro[2.5]octan-4-yl)methyl)pyridin-3-yl)phenyl)piperidine-2,6-dione], the Dmax was 65.5% under setting [5] and 60 to 90% under setting [6]. Further, the 50% degradation concentration (DC50) is 262 nM under setting [7] and 100 to 1000 nM under setting [8].
